Columns and labels:
Siglec-2 (CD22) = molecular target: T1, Siglec-2 (CD22) (Homo sapiens, UniProt P20273); conditions: value from cited reference; cited from earlier work
T1 sequence (P20273 20-847): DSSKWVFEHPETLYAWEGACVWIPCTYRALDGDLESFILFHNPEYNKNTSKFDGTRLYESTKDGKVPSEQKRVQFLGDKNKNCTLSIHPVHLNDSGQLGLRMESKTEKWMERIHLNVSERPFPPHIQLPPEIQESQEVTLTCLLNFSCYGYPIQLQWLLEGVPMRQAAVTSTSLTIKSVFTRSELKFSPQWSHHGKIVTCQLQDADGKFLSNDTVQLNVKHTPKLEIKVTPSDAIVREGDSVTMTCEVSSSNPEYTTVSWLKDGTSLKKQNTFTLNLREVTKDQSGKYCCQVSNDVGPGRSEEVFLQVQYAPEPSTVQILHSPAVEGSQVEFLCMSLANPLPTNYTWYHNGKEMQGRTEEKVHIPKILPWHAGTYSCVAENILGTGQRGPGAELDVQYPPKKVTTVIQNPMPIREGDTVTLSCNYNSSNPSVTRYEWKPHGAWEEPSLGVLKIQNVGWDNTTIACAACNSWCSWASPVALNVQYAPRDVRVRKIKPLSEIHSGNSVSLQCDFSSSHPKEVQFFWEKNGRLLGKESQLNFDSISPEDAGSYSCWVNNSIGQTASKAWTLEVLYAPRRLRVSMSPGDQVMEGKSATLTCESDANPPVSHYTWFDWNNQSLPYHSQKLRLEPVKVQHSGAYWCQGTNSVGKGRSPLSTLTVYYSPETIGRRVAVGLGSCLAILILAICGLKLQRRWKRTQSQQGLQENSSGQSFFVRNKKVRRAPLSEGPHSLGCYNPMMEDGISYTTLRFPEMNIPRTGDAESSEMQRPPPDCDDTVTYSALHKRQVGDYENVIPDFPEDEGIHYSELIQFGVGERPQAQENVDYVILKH

C57BL6 mice [1] = assay: prophylactic tolerization and anti-drug antibody (ADA) production in C57BL6 mice (Example 4); type: in vivo, mouse; conditions: 4 weekly s.c. doses of 4 mg/kg; serum day 28
Text: To evaluate the production of antibodies specific to adalimumab, two control groups of C57BL6 mice were immunized with adalimumab or the individual SigL-conjugated adalimumab antibodies. Conjugates bear BPC-Neu5Gc-based Siglec Ligand-Linker structures with affinity for Siglec-2. On study day −1, animals were randomized into treatment groups based on body weight. On study day 0, animals were bled for baseline serum and then injected subcutaneously (s.q.) with adalimumab or the individual SigL-conjugated adalimumab antibodies once every seven days for a total of four injections over twenty-eight days. The individual antigens were prepared by making a 0.8 mg/ml antigen solution in sterile buffered saline. Animals were then injected with 0.1 ml (˜4 ml/kg) of the 0.8 mg/ml antigen on the rear flanks. The total dose based on a 20 g mouse would be 4 mg/kg per injection. […]
(§1) Anti-drug antibody (ADA) response assays were performed on 96-well assay plates (Nunc Plates, Black 96-Well Immuno Plates, Thermo Scientific, 437111) coated with antigen, as follows. […] The excitation and emission settings for the QuantaBlu Fluorogenic Peroxide Substrates are 325 nm and 420 nm and the relative florescence units were measured using a SpectraMax plate reader. […] Titers were determined by the dilution of serum that gives a 2× OD above background.

C57BL6 mice [2] = assay: anti-antigen antibody production in C57BL6 mice pre-dosed with adalimumab (Example 5); type: in vivo, mouse; conditions: one to four weekly 4 mg/kg s.c. doses (groups A to D); serum day 27
Text: To evaluate the production of antibodies specific to adalimumab-SigL conjugates after pre-dosing with adalimumab, C57BL6 mice were immunized with adalimumab one, two, three, or four times (groups A to D), or once with adalimumab followed by two doses of adalimumab-SigL (Group E) (FIG. 5). Conjugates bear BPC-Neu5Gc-based Siglec Ligand-Linker structures with affinity for Siglec-2. On study day −1, animals were randomized into treatment groups based on body weight. On study day 0, animals were bled for baseline serum and then injected subcutaneously (s.q.) with adalimumab, SigL-conjugated adalimumab antibody, or PBS, once every seven days for a total of four injections over twenty-eight days. The individual antigens were prepared by making a 0.8 mg/ml antigen solution in sterile buffered saline. Animals were then injected with 0.1 ml (˜4 ml/kg) of the 0.8 mg/ml antigen on the rear flanks. […]
as §1

C57Bl/6 mice [3] = assay: durability of tolerization with late adalimumab challenges (Example 12); type: in vivo, mouse; conditions: 4 weekly 4 mg/kg s.c. doses, then adalimumab 4 mg/kg at days 91, 147, 174, 202
Procedure: To evaluate the durability of the induced tolerization status established with the SigL-conjugated adalimumab (as exemplified in Examples 4 and 11), female C57Bl/6 mice (n=5 per group) were primed with four subcutaneous doses of either SigL-conjugated adalimumab (4 mg/kg) or unconjugated adalimumab (4 mg/kg) given seven days apart over a 28 day period. Animals in both groups were later challenged with single subcutaneous doses of unconjugated adalimumab (4 mg/kg) at days 91, 147, 174, and 202. Animals were injected with 0.1 ml (˜4 mg/kg) of the 0.8 mg/ml test article preparations on the rear flanks. The total dose based on a 20 g mouse would be 4 mg/kg per injection per dose. Bleeds were taken for anti-drug antibody analysis at days 0, 28, 112, 146, 168, 201, and 232. Anti-drug antibody (ADA) response assays were performed as described in Example 4.

C57Bl/6 mice [4] = assay: ex vivo flow cytometry of splenic adalimumab-specific and germinal center B cells (Example 13); type: in vivo, mouse
Procedure: To measure B cell activation following the described stimulation, cells were washed twice by spinning cells at 1200 rpm for 5 minutes and rinsing with PBS. Cells were then resuspended in staining buffer (1% bovine serum albumin/0.1% sodium azide/1× phosphate buffered saline) and incubated with Fc-block (BD Biosciences) for five minutes before the addition of anti-CD45, anti-CD19, anti-CD69, and anti-CD86 antibodies (BD Biosciences, Biolegend, Fisher). Cells were then incubated in the dark for an additional 30 minutes at room temperature. Cells were then washed three times with staining buffer and then analyzed on a ZE5 Cell Analyzer (BioRad). Data analysis was performed using FlowJo (v10.8.0) software.
For studies evaluating the generation of adalimumab-specific B cells, C57Bl/6 mice were dosed with a single subcutaneous dose of either SigL-adalimumab (4 mg/kg) or unconjugated adalimumab (4 mg/kg). Splenocytes were then isolated from animals seven days after dosing. In the experiment depicted in FIG. 15, mice that had been dosed with unconjugated adalimumab (4 mg/kg) on Day 0 were dosed again on Day 3 with SigL-adalimumab (4 mg/kg, subcutaneous) or vehicle (PBS) prior to splenocyte isolation on Day 7 of the study.
For the evaluation of germinal center formation (FIG. 14), C57Bl/6 mice were dosed with a single subcutaneous dose of either SigL-adalimumab (4 mg/kg), unconjugated adalimumab (4 mg/kg) or vehicle (PBS) on Day 0. Animals in each arm of this study were then dosed on Day 7 with either a single subcutaneous dose of SigL-adalimumab (4 mg/kg) or unconjugated adalimumab (4 mg/kg). Formation of adalimumab-specific B cells and germinal center B cells were then analyzed on Day 14 of the study as described below.
At the specified time points described above, splenocytes were harvested from individual animals and made into single cell suspension, subjected to red cell lysis using ACK buffer, and plated at a concentration of 200,000 cells per well in round bottom 96 well plates in complete RPMI media. Cells were then processed for flow cytometry as described above. For adalimumab-specific B cells, splenocytes were stained with anti-CD4, ant-CD8a, anti-F4/80, anti-LY6G, anti-CD19, anti-IgD (BD Biosciences, Biolegend, Fisher, eBioscience) and adalimumab-[…] conjugate (Invitrogen). For germinal center B cells, splenocytes were stained with anti-CD45, anti-CD19, anti-GL7, and anti-CD95. Cells were then incubated in the dark for an additional 30 minutes at room temperature. Cells were then washed three times with staining buffer and then analyzed on a ZE5 Cell Analyzer (BioRad). Data analysis was performed using FlowJo (v10.8.0) software.

C57Bl/6 mice [5] = assay: ADA response to adalimumab-anti-mouse CD22 scFv fusion protein in mice (Example 15); type: in vivo; conditions: after a single 4 mg/kg dose
Text: To evaluate the production of antibodies specific to adalimumab and/or adalimumab-anti-mouse CD22 scFv fusion protein, 8 week old female C57BL/6 mice (n=5 per group) were immunized through intravenous injection with adalimumab or adalimumab-anti-mouse CD22 scFv fusion protein. On study day −1, animals were randomized into treatment groups based on body weight. On study day 0, animals were bled for baseline serum and then injected IV with adalimumab or adalimumab-anti-mouse CD22 scFv fusion protein. Animals were dosed […] with 4 mg/kg of adalimumab or adalimumab-anti-mouse CD22 scFv fusion protein. Animals were bled via the retro-orbital sinus weekly throughout the study under inhaled isoflurane anesthesia. On study day, 28 animals were anesthetized with inhaled isoflurane anesthesia and then bled via cardiac puncture and then sacrificed by cervical dislocation. […]
as §1, with “ADA” for “Anti-drug antibody (ADA) response”

## CO[C@]1(C(=O)O)CC(O)[C@@H](NC(C)=O)C([C@H](O)[C@H](O)CNC(=O)c2ccc(-c3ccccc3)cc2)O1 (stereo partly shown)
Siglec-2 (CD22)
  IC50: 4000 nM

## COc1ccc(OC2OC(COC3(C(=O)O)CC(O)C(NC(=O)CO)C(C(O)C(O)CNCc4ccc(-c5ccc(O)cc5)cc4)O3)C(O)C(O)C2O)cc1 (stereo not shown)
Siglec-2 (CD22)
  IC50: 240 nM

## O=C(Cc1ccc(-c2ccc(O)cc2)cc1)NCC(O)C(O)C1OC(OCc2ccccc2)(C(=O)O)CC(O)C1NC(=O)CO (stereo not shown)
Siglec-2 (CD22)
  IC50: 100 nM

## O=C(Cc1ccc(-c2ccc(O)cc2)cc1)NC[C@@H](O)C(O)C1O[C@@](OCc2cccc(Cl)c2Cl)(C(=O)O)CC(O)[C@H]1NS(=O)(=O)c1ccccc1[N+](=O)[O-] (stereo partly shown)
Siglec-2 (CD22)
  IC50: 60 nM

## COC1(C(=O)O)CC(NS(=O)(=O)c2ccc(C)cc2)C(NC(C)=O)C(C(O)C(O)CNC(=O)c2ccc(-c3ccccc3)cc2)O1 (stereo not shown)
Siglec-2 (CD22)
  IC50: 150 nM

## adalimumab
C57BL6 mice [1]
  immunogenicity (anti-drug antibody response, serum IgG titer): highly immunogenic
C57BL6 mice [2]
  anti-adalimumab titers: progressively stronger anti-adalimumab titers
C57Bl/6 mice [3]
  anti-drug antibody level: strong, saturating level of ADA
C57Bl/6 mice [4]; 7 days post single 4 mg/kg s.c. dose
  presence of adalimumab-specific B cells (CD45+CD19+IgD−Adal+) in spleen: detected
C57Bl/6 mice [4]; day 14, s.c. dosing days 0 and 7, conjugate day 0 followed by adalimumab day 7
  splenic adalimumab-specific B cells: induces
C57Bl/6 mice [4]; spleen, 7 days post single 4 mg/kg s.c. dose
  mean abundance of adalimumab-specific B cells: 0.2 % of splenic IgD^− B cells
C57Bl/6 mice [4]; spleen, day 14, dosing days 0 and 7
  germinal center B cells (CD19+CD95+GL7+): increase in the abundance of germinal center B cells
C57Bl/6 mice [5]
  immunogenicity in mice (immunoglobulin response): highly immunogenic

From patent publication US20240216490A1, “Autoantigens Engineered to Suppress Autoimmune Response” (Osprey Biopharmaceuticals, Inc., priority 2022, published 2024)
